# Test results from patent US20060205949A1, “Crystalline forms of a biphenyl compound” (THERAVANCE, INC., priority 2005, published 2006).
# Experiments:
# [1] = biological target: T1, M3 muscarinic receptor subtype (hM3) (Homo sapiens, UniProt P20309); experiment: Radioligand binding assay ([3H]-NMS displacement); details: CHO cell membranes, tested in this or a similar assay
# T1 construct: expressed in transfected cells
# Experimental: CHO cell lines stably expressing cloned human hM1, hM2, hM3 and hM4 muscarinic receptor subtypes, respectively, were grown to near confluency in medium consisting of HAM's F-12 supplemented with 10% FBS and 250 μg/mL Geneticin. The cells were grown in a 5% CO2, 37° C. incubator and lifted with 2 mM EDTA in DPBS. Cells were collected by 5 minute centrifugation at 650×g, and cell pellets were either stored frozen at −80° C. or membranes were prepared immediately. For membrane preparation, cell pellets were resuspended in lysis buffer and homogenized with a Polytron PT-2100 tissue disrupter (Kinematica AG; 20 seconds×2 bursts). Crude membranes were centrifuged at 40,000×g for 15 minutes at 4° C. […] The protein concentration of the membrane suspension was determined by the method described in Lowry, O. et al., Journal of Biochemistry 193:265 (1951). […]
# Radioligand binding assays were performed in 96-well microtiter plates in a total assay volume of 100 μL. […] Filter plates were rinsed three times with wash buffer (10 mM HEPES) to remove unbound radioactivity. […] The plates were then counted in a PerkinElmer Topcount liquid scintillation counter (PerkinElmer Inc., Wellesley, Mass.). Binding data were analyzed by nonlinear regression analysis with the GraphPad Prism Software package (GraphPad Software, Inc., San Diego, Calif.) using the one-site competition model. […]
# [2] = biological target: T2, hM2 receptor (CHO-K1 cells) (Homo sapiens, UniProt P08172); experiment: Blockade of agonist-mediated inhibition of cAMP accumulation; format: cell-based; details: CHO-K1 cells expressing the hM2 receptor; this or a similar assay; read-out: Ki value for blockade of oxotremorine-inhibition of forskolin-mediated cAMP accumulation
# T2 construct: expressed in transfected cells; host or cells: CHO-K1 cells
# T2 sequence (P08172 1-466): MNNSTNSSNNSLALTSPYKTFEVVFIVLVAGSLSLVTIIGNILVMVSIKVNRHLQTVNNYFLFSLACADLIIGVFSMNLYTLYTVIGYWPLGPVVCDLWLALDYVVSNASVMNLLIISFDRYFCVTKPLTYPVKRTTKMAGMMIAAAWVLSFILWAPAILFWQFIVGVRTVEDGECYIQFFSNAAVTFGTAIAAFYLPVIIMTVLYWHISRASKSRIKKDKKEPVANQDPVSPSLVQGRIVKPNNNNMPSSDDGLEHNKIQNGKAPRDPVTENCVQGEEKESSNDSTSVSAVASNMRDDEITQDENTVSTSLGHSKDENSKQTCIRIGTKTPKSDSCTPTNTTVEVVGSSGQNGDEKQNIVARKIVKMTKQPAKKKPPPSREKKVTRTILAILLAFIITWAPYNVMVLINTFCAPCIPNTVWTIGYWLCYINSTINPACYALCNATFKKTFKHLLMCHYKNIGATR
# Experimental: In this assay, the functional potency of a test compound was determined by measuring the ability of the test compound to block oxotremorine-inhibition of forskolin-mediated cAMP accumulation in CHO-K1 cells expressing the hM2 receptor. cAMP assays were performed in a radioimmunoassay format using the Flashplate Adenylyl Cyclase Activation Assay System with ^125I-cAMP (NEN SMP004B, PerkinElmer Life Sciences Inc., Boston, Mass.), according to the manufacturer's instructions.
# Cells were rinsed once with dPBS and lifted with Trypsin-EDTA solution (0.05% trypsin/0.53 mM EDTA) as described in the Cell Culture and Membrane Preparation section above. The detached cells were washed twice by centrifugation at 650×g for five minutes in 50 mLs dPBS. The cell pellet was then re-suspended in 10 mL dPBS, and the cells were counted with a Coulter ZI Dual Particle Counter (Beckman Coulter, Fullerton, Calif.). […]
# To measure the ability of a test compound to block oxotremorine-inhibited AC activity, 25 μL forskolin and oxotremorine (25 μM and 5 μM final concentrations, respectively, diluted in dPBS) 25 μL diluted test compound, and 50 μL cells were added to remaining assay wells. […] Plates were sealed, incubated overnight at room temperature and counted the next morning on a PerkinElmer TopCount liquid scintillation counter (PerkinElmer Inc., Wellesley, Mass.). […]
# T1 sequence (P20309 whole entry): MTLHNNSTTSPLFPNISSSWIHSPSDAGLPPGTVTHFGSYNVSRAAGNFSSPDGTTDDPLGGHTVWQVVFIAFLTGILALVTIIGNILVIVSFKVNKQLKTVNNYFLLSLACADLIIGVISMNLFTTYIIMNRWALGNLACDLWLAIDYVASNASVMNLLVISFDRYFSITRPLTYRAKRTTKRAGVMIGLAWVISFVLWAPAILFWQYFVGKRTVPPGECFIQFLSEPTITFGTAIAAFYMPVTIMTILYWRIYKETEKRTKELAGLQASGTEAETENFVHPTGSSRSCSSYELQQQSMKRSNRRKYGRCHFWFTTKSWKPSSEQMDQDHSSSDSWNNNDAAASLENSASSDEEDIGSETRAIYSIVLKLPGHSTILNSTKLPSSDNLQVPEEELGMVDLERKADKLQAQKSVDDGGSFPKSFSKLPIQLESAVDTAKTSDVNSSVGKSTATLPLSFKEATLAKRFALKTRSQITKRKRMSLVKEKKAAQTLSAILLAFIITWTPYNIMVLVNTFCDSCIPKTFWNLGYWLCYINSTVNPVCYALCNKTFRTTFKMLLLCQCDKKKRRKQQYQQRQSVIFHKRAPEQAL
structure (smiles),measurement,setting,value
"O=C(CCN1CCC(OC(=O)Nc2ccccc2-c2ccccc2)CC1)NCCCCCNCc1ccc(O)cc1 [compound of formula I, biphenyl-2-ylcarbamic acid 1-{2-[5-(4-hydroxybenzylamino)pentylcarbamoyl]ethyl}piperidin-4-yl ester]",Ki,[1],< 5 nM
same,Ki,[2],< 10 nM
